Results taken from patent publication US8546537B2, “Streptavidin having low immunogenicity and use thereof” (The University of Tokyo, priority 2009, dated 2013).
pKd: −log10 of the molar value.

Tests used:
[1] = background art; cited from earlier work
[2] = Kinetics analysis of interaction between streptavidin protein and biotin using Biacore biosensor; assay type: binding; conditions: for pKd: Biacore 3000, obtained from kd/ka, read-out: Dissociation constant Kd
Procedure: As a ligand (a substance to be attached to a sensor chip) used for a Biacore (registered trademark) biosensor, an anti-mouse IgG antibody (manufactured by GE Healthcare Biosciences) was used. On the other hand, as analytes (substances to be supplied to the flow channel system), a biotinylated mouse antibody and various types of mutant streptavidins were prepared, and intermolecular interaction was then analyzed using Biacore (registered trademark) 3000 (a biosensor based on the principle of surface plasmon resonance; manufactured by GE Healthcare Biosciences). The anti-mouse IgG antibody was immobilized on all of the flow cells of a CM5 sensor chip according to an amine coupling method. The amount of the antibody immobilized on each flow cell was 8000 RU. Subsequently, as references, non-biotinylated mouse antibodies were captured onto Flow Cells 1 and 3, and biotinylated mouse antibodies were captured onto Flow Cells 2 and 4. Various types of streptavidins were loaded in a running buffer (HBS-EP; manufactured by GE Healthcare Biosciences) on Flow Cells 1 and 2, or 3 and 4, at a flow rate of 20 μl/min for 2 minutes. Thereafter, dissociation of each sample was monitored for 7 minutes. Thereafter, a reproduction operation was carried out using a 10 mM glycine-HCl buffer (pH 1.7) (manufactured by GE Healthcare Biosciences), and repeat measurement was then carried out. Using the analysis software BIAevaluation ver. 4.1, a reaction kinetics analysis was performed on a 1:1 binding model based on the obtained sensorgram, so as to calculate an association rate constant (ka) and a dissociation rate constant (kd). A dissociation constant (Kd) was obtained from kd/ka.
The results of the kinetics analysis of the intermolecular interaction of a recombinant streptavidin and a biotin, which was carried out using Biacore (registered trademark) 3000 (a biosensor based on the principle of surface plasmon resonance; manufactured by GE Healthcare Biosciences), are as shown in Table 2.

[3] = Biacore 3000, biotinylated mouse antibody captured, 1:1 binding model

Substance | isoelectric point [1] | Association rate constant ka [2, 3] | Dissociation rate constant kd [2, 3] | pKd [2]
Avidin: basic glycoprotein derived from albumen | exceeds 10 | – | – | –
cSA_WT: wild-type (native) core streptavidin, amino acid sequence SEQ ID NO: 2 [reference compound] | around the neutral range | 2.81 × 10^5 M^−1 S^−1 | 6.32 × 10^−5 S^−1 | 9.65
mcSA_W120A: streptavidin mutant named W120A in Table 2; not described further [reference compound] | – | – | 7.49 × 10^−4 S^−1 | 8.45
